In patent publication US20250064840A1, “DRUG DELIVERY SYSTEMS BASED ON ENDOPEROXIDES USEFUL IN DIAGNOSIS AND THERAPY, AND METHODS THEREOF” (FACULDADE DE FARMÁCIA DA UNIVERSIDADE DE LISBOA, priority 2021, published 2025):
Where “and” joins values, the source holds several entries; their conditions need not be identical. Equal entries are not always repeated. Where two headings read alike, the source gives them in different places.

Key:
[1] = tested on: Plasmodium falciparum strain 3D7; assay: Antimalarial activity, whole-cell SYBR Green I assay; assay type: cell-based; details: read-out: Antimalarial activity (IC50) Mean
Method: Antimalarial activity of compounds IIa and IIb can be accessed by exposing a P. falciparum strain (see Example 5), such as strain 3D7, which is chloroquine and mefloquine sensitive, to said compounds, and by using the SYBR Green I assay as described in Machado et. al, Ann. Clin. Med. Microbio. 2016, 2, 1010. Asynchronous parasites are cultivated for 72 hours in the presence of each compound. Fluorescence intensity was measured with a multi-mode microplate reader (Triad, Dynex Technologies). Compounds IIa and IIb were active against the malaria parasite (see Example 5, Table 1). Compounds were dissolved in RPMI-1640 with L-glutamine (BiowestTM) supplemented with […] (GibcoTM), herein after referred to as RPMIc, to obtain an intermediate solution of 100 μM. Laboratory-adapted P. falciparum strain 3D7, a chloroquine and mefloquine sensitive strain, was continuously cultured as described elsewhere (Machado et. al, Ann. Clin. Med. Microbio. 2016, 2, 1010). Parasites were cultivated in 5% haematocrit, 37° C. and atmosphere with 5% of CO2. […] (GibcoTM) at 0.5% was used as a substitute of human serum in the culture medium. Staging and parasitemia were determined by light microscopy of Giemsa-stained thin blood smears. Anti-malarial activity was determined using the SYBR Green I assay (Machado et. al, Ann. Clin. Med. Microbio. 2016, 2, 1010 and Lobo et. al, […]. 2018, 17, 1). Briefly, asynchronous parasites were cultivated for 72 hours in the presence of a 1:3 serial dilution of each compound.

[2] = tested on: AML12 murine immortalized hepatocyte cell line; assay: Toxicity for non-tumoral cells, MTS assay, AML12; assay type: cell-based; details: for IC50: Mus musculus, non-tumorigenic cell line, 72 hours, MTS; for Selectivity (IC50Compound II/IC50 Doxorubicin): ratio to doxorubicin
[3] = tested on: PC3 human prostate adenocarcinoma; assay: Antitumoral effect, MTS metabolism assay, PC3; assay type: cell-based; details: 72 hours
[4] = tested on: MCF7 human breast adenocarcinoma; assay: Antitumoral effect, MTS metabolism assay, MCF7; assay type: cell-based; details: 72 hours
[5] = tested on: U251 human glioblastoma; assay: Antitumoral effect, MTS metabolism assay, U251; assay type: cell-based; details: U-251, 72 hours
[6] = tested on: HCT116 human colorectal carcinoma; assay: Antitumoral effect, MTS metabolism assay, HCT116; assay type: cell-based; details: HCT-116, 72 hours
[7] = tested on: HT-29 cells; details: 2 mg/kg intravenous, eight injections
[8] = Fluorescence quantum yields determination; assay type: physicochemical; details: water with 30% DMSO; standard fluorescein in 0.1 M sodium hydroxide
[9] = chloroquine-sensitive 3D7 strain, asynchronous parasites, 72 hours

Row | IC50 [1, 9] [nM] | IC50 [3] [nM] | IC50 [4] [nM] | IC50 [5] [nM] | IC50 [6] [nM] | fluorescence quantum yield [8] [%] | SMILES | IC50 ([1]; 3D7, 72 h) [nM] | IC50 [2] [nM] | Selectivity (IC50Compound II/IC50 Doxorubicin) [2] | reduction of the tumour mass versus negative control and vehicle control [7]
1 | 32.8 | – | – | – | – | – | COc1cc(NC(C)CCCNC(=O)OC2CCCC3(C2)OOC2(OO3)C3CC4CC(C3)CC2C4)c2ncccc2c1 (stereo not shown) [Compound IIa] | – | – | – | –
2 | – | – | – | – | – | – | CCN(CC)CCCC(C)Nc1ccnc2cc(Cl)ccc12 (stereo not shown) [CQ, chloroquine, reference compound] | 19.4 | – | – | –
3 | 11.4 | – | – | – | – | – | CC(C)(C)OC(=O)N1CCN(C(=O)OC2CCCC3(C2)OOC2(OO3)C3CC4CC(C3)CC2C4)CC1 (stereo not shown) [Compound IIb] | – | – | – | –
4 | – | 1370 | 1650 | 250 | 5110 | – | COc1cccc2c1C(=O)c1c(O)c3c(c(O)c1C2=O)C[C@](O)(C(=O)CO)C[C@H]3O[C@@H]1CC(NC(=O)OC2CCCC3(C2)OOC2(OO3)C3CC4CC(C3)CC2C4)[C@@H](O)[C@@H](C)O1 (stereo partly shown) [IIc] | – | 1830 | 10 and 10.64 | –
5 | – | 14300 | 8450 | 13200 | 3520 | – | COc1cccc2c1C(=O)c1c(O)c3c(c(O)c1C2=O)C[C@](O)(C(=O)CO)C[C@H]3O[C@@H]1CC(NC(=O)OCC2=CCCCC23OOC2(OO3)C3CC4CC2CC(O)(C4)C3)[C@@H](O)[C@@H](C)O1 (stereo partly shown) [Compound IIe] | – | 30500 | 180 and 179 | –
6 | – | 120 | 170 | 11 | 50 | 2.8 | COc1cccc2c1C(=O)c1c(O)c3c(c(O)c1C2=O)C[C@@](O)(C(=O)CO)C[C@@H]3O[C@H]1C[C@H](N)[C@H](O)[C@H](C)O1 [Doxorubicin, doxorubicin, reference compound] | – | 170 | – | higher reduction of the tumour mass
